Source: ChEMBL document CHEMBL3272162, “Quinazolines and 1,4-benzodiazepines. 81. s-Triazolo[4,3-a][1,4]benzodiazepines by oxidative cyclization of hydrazones” (1977)

Key:
Assay type in all cases: functional
Mus musculus [1] = experiment: CNS activity in po dosed mouse by inclined screen test
Mus musculus [2] = experiment: CNS activity in po dosed mouse assessed as antifighting activity by foot shock test
Mus musculus [3] = experiment: CNS activity in po dosed mouse assessed as antagonism against pentylenetetrazole-induced response

Structure (SMILES) | ED50 (Mus musculus [1]) [mg/kg] | ED50 (Mus musculus [2]) [mg/kg] | ED50 (Mus musculus [3]) [mg/kg]
COC(=O)c1nnc2n1-c1ccc(Cl)cc1C(c1ccccc1)=NC2 | 40 | 5 | 0.9
[O-][N+]1=C(c2ccccc2)c2cc(Cl)ccc2-n2c(nnc2C(O)CO)C1 (configuration not stated) | > 400 | > 100 | 620
OCC(O)c1nnc2n1-c1ccc(Cl)cc1C(c1ccccc1)=NC2 (configuration not stated) | 100 | 20 | 3.8
OCC(O)c1nnc2n1-c1ccc(Cl)cc1C(c1ccccc1F)=NC2 (configuration not stated) | 200 | 5 | 1.5
C=Cc1nnc2n1-c1ccc(Cl)cc1C(c1ccccc1Cl)=NC2 | 150 | 6.25 | 4.2
C=Cc1nnc2n1-c1ccc(Cl)cc1C(c1ccccc1F)=NC2 | 150 | 2.5 | 1.3
CCOC(=O)NN(/C=C/c1nnc2n1-c1ccc(Cl)cc1C(c1ccccc1Cl)=NC2)C(=O)OCC | > 400 | > 100 | > 800
NNC(=O)c1nnc2n1-c1ccc(Cl)cc1C(c1ccccc1)=NC2 | 500 | 50 | 2.8
CN(C)CCNC(=O)c1nnc2n1-c1ccc(Cl)cc1C(c1ccccc1)=NC2 | 300 | 100 | 50
Cc1nnc2n1-c1ccc(Cl)cc1C(c1ccccc1)=[N+]([O-])C2 | > 400 | 100 | 3.35
Cc1nnc2n1-c1ccc(Cl)cc1C(c1ccccc1)=NC2 [ALPRAZOLAM] | 2 | 2.5 | 0.3
CNC1=Nc2ccc(Cl)cc2C(c2ccccc2)=[N+]([O-])C1 [CHLORDIAZEPOXIDE] | 100 | 40 | 8
CN1C(=O)CN=C(c2ccccc2)c2cc(Cl)ccc21 [DIAZEPAM] | 25 | 10 | 1.4
Clc1ccc2c(c1)C(c1ccccc1)=NCc1nncn1-2 [ESTAZOLAM] | > 400 | 0.5 | 1.1
